Earlier results, collected in US6994864B2, “Composition containing 7-hydroxy DHEA and/or 7-keto DHEA and at least a carotenoid” (L'Oreal, priority 2000, dated 2006).

Legend:
skin of rats = conditions: on rats

C[C@]12CC[C@H](O)CC1=C[C@@H](O)[C@@H]1[C@@H]2CC[C@]2(C)C(=O)CC[C@@H]12 [7α-hydroxy-DHEA]
proliferation of the fibroblasts (fibroblasts): increase
viability of the human keratinocytes (human keratinocytes): increase
elastin and collagen content of the skin (skin of rats): increased
thickness of the dermis (skin of rats): increased
